From patent US20230310629A1, “BISPECIFIC ANTIBODY-DRUG CONJUGATES TARGETING EGFR AND MUC1 AND USES THEREOF” (Merck Patent GmbH, priority 2020, published 2023)

What was measured:
[1] = tested on: NCI-H1975 cells; test: cells; type: cell-based; conditions: Homo sapiens
Method: (§1) NSCLC cells NCI-H292 (EGFR wild type (wt)), HCC827 (EGFR del E746-A750), and NCI-H1975 (EGFR L858R/T790M) were all purchased from ATCC. NCI-H292 and NCI-H1975 were cultured in RPMI1640 media with stable L-glutamine (Millipore® Sigma), 10% FBS (Millipore® Sigma) and 1 mM sodium pyruvate (Gibco®, Thermo Fisher Scientific®, or Millipore® Sigma). HCC827 cells were cultured in RPMI1640 media with stable 2 mM L-glutamine, 2.5 g/L D-(+)-glucose solution (Millipore® Sigma), 10 mM HEPES (Millipore® Sigma), 10% FBS, and 1 mM sodium pyruvate (Gibco®, Thermo Fisher Scientific®, or Millipore® Sigma).
(§2) For cytotoxicity testing, cell monolayers were washed once with Gibco® D-PBS (Thermo Fisher Scientific®) and detached from the cell culture flask using Accutase® (Millipore® Sigma). Viable cells were counted with the automated cell counter LUNA-FL™ (Logos Biosystems) using 0.4% Gibco® trypan blue solution (Thermo Fisher Scientific®). A total of 625 cells (NCI-H292), 1250 cells (NCI-H1975) or 3000 cells (HCC827) were plated in 90 μl cell culture medium per well of a 96-well black/clear flat bottom TC-treated imaging microplate (Corning®) and cultured overnight. A ten-fold starting concentration of ADCs or compounds and a respective serial dilution (1:4) were prepared in cell culture medium briefly before use. Wells were supplied with 10 μl ADC or compound solution. Treatment was performed in technical triplicates. […] Untreated control cells for ADCs or EGFR tyrosine kinase inhibitors (TKIs) received a corresponding amount of dilution media or dimethylsulfoxide (DMSO; Millipore Sigma), respectively. For subsequent cell viability measurement, 100 μl Cell Titer-Glo® reagent (Promega™ Corp, Madison, WI, USA) was pipetted in each well, and plates were further processed according the manufacturer's instructions.

[2] = tested on: NCI-H292 cells; test: cells; type: cell-based; conditions: Homo sapiens
Method: as §1, §2

`C=CC(=O)Nc1cc(Nc2nccc(-c3cn(C)c4ccccc34)n2)c(OC)cc1N(C)CCN(C)C` [Molecule 15, osimertinib] showed an IC50 ([1]; NCI-H1975, […], read-out: Geomean IC50) of […], an Emax ([1]; NCI-H1975, read-out: geomean span (% efficacy)) of […] and an IC50 ([2]; NCI-H292, […], read-out: Geomean IC50) of 570 nM. The Emax ([2]; NCI-H292, read-out: geomean span (% efficacy)) was 100%.
